From patent US20130116263A1, “PAK INHIBITORS FOR THE TREATMENT OF CELL PROLIFERATIVE DISORDERS” (AFRAXIS, INC., priority 2011, published 2013) come the findings set out here.

In assay [1] the test system is p-PAK1(S144). Description: In vitro cellular HTRF assay for p-PAK1(S144). The conditions noted are these: cell line RT4-D6P2T, read-out: pPAK1(S144). It counts as cell-based. From the text:
(§1) Some of the compounds for treatment of cancer are subject to in vitro cellular HTRF assay for p-PAK1(S144) and p-MEK1(S298). The cell line is RT4-D6P2T.
On the technique in general: TR-FRET usually uses a lanthanide donor and a delayed reading to cut background.

The test system of assay [2] is p-MEK1(S298). Description: In vitro cellular HTRF assay for p-MEK1(S298). The conditions noted are these: cell line RT4-D6P2T, read-out: pMEK1(S298). It is filed as cell-based.
Description: as §1

Assay [3] relates to EBC-1. Description: Growth inhibition in cancer cell lines (CellTiter-Glo), EBC-1. It counts as cell-based. The conditions noted are these: EBC-1, 72 hours exposure.
Assay [4] has as its system NCI-H520. Description: Growth inhibition in cancer cell lines (CellTiter-Glo), NCI-H520. It is filed as cell-based. Conditions: NCI-H520, 72 hours exposure. The text has this: (§2) Methodology: 60 cell lines (CCRF-CEM, HL-60(TB), K-562, MOLT-4, RPMI-8226, SR, A549, EKVX, HOP-62, HOP-92, NCI-H226, NCI-H23, NCI-H322M, NCI-H460, NCI-H522, COLO 205, HCC-2998, HCT-116, HCT-15, HT29, KM12, SW-620, SF-268, SF-295, SF-539, SNB-19, SNB-75, U251, LOX IMV1, MALME-3M, M14, SK-MEL-2, SK− MEL-28, SK-MEL-5, UACC-257, UACC-62, IGR-OV 1, OVCAR-3, OVCAR-4, OVCAR-5, OVCAR-8, SK-OV-3, 786-0, A498, ACHN, CAKI-1, RXF 393, SN12C, TK-10, UO-31, PC-3, DU-145, MCF7, NCI/ADR-RES, MDA-MB-231, HS 578T, MDA-MB-435, MDA-MB-468, BT-549, and T-47D) are grown in RPMI-1640 medium with 10% FBS. Stock solutions of a test compound are prepared in DMSO. Concentrations of from about 0.001 μM to about 20 μM of each compound in RPM-1640 media are prepared. The test compound is added to wells containing 50 μL of cells and medium. A CellTiter-Glo (CTG) assay is carried out on the 0 hr plate to obtain a 0 hr count. Cells are exposed to the test compound for 72 hours. Following the exposure period, the plates are assayed using CTG. Luminescence is recorded on Synergy.
(§3) As a non-limiting example, Compound 30 as described herein was tested for growth inhibition against various cancer cell lines.

Assay [5] relates to SK-MES-1. Description: Growth inhibition in cancer cell lines (CellTiter-Glo), SK-MES-1. Conditions: SK-MES-1, 72 hours exposure. It is filed as cell-based.
Assay [6] deals with IGROV-1. Description: Growth inhibition in cancer cell lines (CellTiter-Glo), IGROV-1. It is filed as cell-based. The conditions noted are these: IGROV-1, 72 hours exposure.
Description: as §2, §3
In general terms: In ATP-based viability assays light output follows the ATP content of the culture.

Assay [7] concerns OVCAR-3. Description: Growth inhibition in cancer cell lines (CellTiter-Glo), OVCAR-3. It counts as cell-based. Conditions: OVCAR-3, 72 hours exposure.
Description: as §2, §3

Assay [8] relates to SKOV-3. Description: Growth inhibition in cancer cell lines (CellTiter-Glo), SKOV-3. It is filed as cell-based. Conditions: Homo sapiens, SK-OV-3; SKOV-3, 72 hours exposure.
Description: as §2, §3

In assay [9] the test system is OVCAR-4. Description: Growth inhibition in cancer cell lines (CellTiter-Glo), OVCAR-4. It is filed as cell-based. The conditions noted are these: OVCAR-4, 72 hours exposure.
Description: as §2, §3

In assay [10] the target is PAK1 (Homo sapiens, UniProt Q13153). Description: Additional in vitro PAK1 inhibition assay at ATP 10 uM and 1 mM. It counts as biochemical. On the procedure:
(§4) Similar in vitro PAK1 and PAK-4 inhibition assays are conducted in compounds for the treatment of cancer, but under ATP concentrations of 10 uM and 1 mM.

Assay [11] deals with PAK4 (Homo sapiens, UniProt O96013). Description: Additional in vitro PAK-4 inhibition assay at ATP 10 uM and 1 mM. Conditions: 10 μM ATP; read-out: PAK4 IC50 (10 μM ATP). It counts as biochemical. On the procedure: as §4
Setting [12] is: 10 μM ATP, read-out: PAK1 IC50 (10 μM ATP).
Where [13] appears, read: 1 mM ATP, read-out: PAK1 IC50 (1 mM ATP).

Where two headings read alike, the source gives them in different places.

Chain of PAK1 (Q13153 whole entry): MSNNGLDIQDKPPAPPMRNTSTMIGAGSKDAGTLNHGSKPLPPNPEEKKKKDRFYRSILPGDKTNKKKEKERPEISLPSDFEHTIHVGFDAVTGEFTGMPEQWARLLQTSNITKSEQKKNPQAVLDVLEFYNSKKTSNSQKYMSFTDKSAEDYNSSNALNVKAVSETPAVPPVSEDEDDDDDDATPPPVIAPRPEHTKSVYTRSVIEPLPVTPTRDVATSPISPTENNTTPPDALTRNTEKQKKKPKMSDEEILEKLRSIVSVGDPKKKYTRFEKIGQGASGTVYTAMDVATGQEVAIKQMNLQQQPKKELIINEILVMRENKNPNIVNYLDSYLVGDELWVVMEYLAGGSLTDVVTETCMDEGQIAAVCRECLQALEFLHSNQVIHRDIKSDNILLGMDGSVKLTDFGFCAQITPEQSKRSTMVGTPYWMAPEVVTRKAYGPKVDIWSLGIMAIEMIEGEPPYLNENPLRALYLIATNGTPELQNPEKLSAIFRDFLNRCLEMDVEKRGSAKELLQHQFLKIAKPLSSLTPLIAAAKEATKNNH
Chain of PAK4 (O96013 whole entry): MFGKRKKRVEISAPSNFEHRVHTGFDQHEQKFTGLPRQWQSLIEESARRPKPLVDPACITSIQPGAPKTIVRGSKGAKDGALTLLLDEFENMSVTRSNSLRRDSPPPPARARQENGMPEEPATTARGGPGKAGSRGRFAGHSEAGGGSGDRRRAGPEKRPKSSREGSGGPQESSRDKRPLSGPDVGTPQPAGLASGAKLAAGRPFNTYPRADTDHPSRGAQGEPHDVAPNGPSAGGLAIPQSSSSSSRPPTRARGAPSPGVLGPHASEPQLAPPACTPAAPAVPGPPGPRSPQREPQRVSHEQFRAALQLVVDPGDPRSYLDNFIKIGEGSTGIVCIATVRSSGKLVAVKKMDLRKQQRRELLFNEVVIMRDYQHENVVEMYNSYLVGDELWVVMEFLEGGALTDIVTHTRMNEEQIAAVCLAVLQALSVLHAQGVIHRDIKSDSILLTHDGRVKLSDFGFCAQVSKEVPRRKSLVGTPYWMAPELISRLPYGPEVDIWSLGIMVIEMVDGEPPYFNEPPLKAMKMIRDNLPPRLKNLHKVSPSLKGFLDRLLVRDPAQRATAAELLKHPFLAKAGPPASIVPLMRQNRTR

With `CCn1c(=O)c(-c2ccc(-c3cncc(C)n3)cc2Cl)cc2cnc(N[C@H]3CCOC3)nc21` [drawing 389], the results for the IC50 in assay [1] and in [2] were 500 to 5000 nM and greater than 5000 nM, respectively.
Take `Cc1nc(-c2ccc(-c3cc4cnc(NC5CCOCC5)nc4n(CC4CCNCC4)c3=O)c(Cl)c2)no1` [drawing 396]: the figures for the IC50 in assay [1] and in assay [2] were 50 to 500 nM and 500 to 5000 nM, respectively.
On to `Cc1nc(-c2ccc(-c3cc4cnc(NC5CCOCC5)nc4n(Cc4ccc(CCN)cc4)c3=O)c(Cl)c2)no1` [drawing 394], for which the IC50 in [1] lay within 50 to 500 nM; in [2], 500 to 5000 nM.
The corresponding values for `CCn1c(=O)c(-c2ccc(-c3nccnc3C)cc2Cl)cc2cnc(NC3CCOC(C)(C)C3)nc21` (centres unmarked) [drawing 385] are 500 to 5000 nM and 500 to 5000 nM.
Take `CCn1c(=O)c(-c2ccc(-c3cncc(C)n3)cc2Cl)cc2cnc(NCCC3CCN(C)CC3)nc21` [drawing 390]: the IC50 in assay [1] and in assay [2] was 50 to 500 nM throughout.
For `Cc1nc(-c2ccc(-c3cc4cnc(NC5CCOCC5)nc4n(Cc4ccc(CN)cc4)c3=O)c(Cl)c2)no1` [drawing 397], the IC50 in [1] was in the range of 50 to 500 nM; in assay [2], 500 to 5000 nM.
On to `Cc1nc(-c2ccc(-c3cc4cnc(NC5CCOCC5)nc4n(CCC4CCNCC4)c3=O)c(Cl)c2)no1` [drawing 378], for which the IC50 in [2] lay within 500 to 5000 nM.
Take `Cc1nc(-c2ccc(-c3cc4cnc(NC5CCOCC5)nc4n(CC(=O)N4CCC(CN)CC4)c3=O)c(Cl)c2)no1` [drawing 381]: the IC50 in assay [2] is greater than 5000 nM.
Consider `Cc1nc(-c2ccc(-c3cc4cnc(NC5CCOCC5)nc4n(Cc4cccc(CCN)c4)c3=O)c(Cl)c2)no1` [drawing 395], for which the IC50 in [1] and in [2] was 50 to 500 nM each time.
As to `Cc1nc(-c2ccc(-c3cc4cnc(NC5CCOCC5)nc4n(Cc4cccc(OCCN)c4)c3=O)c(Cl)c2)no1` [drawing 380], the IC50 in assay [1] and in assay [2] was 500 to 5000 nM each time.
Take `Cc1nc(-c2ccc(-c3cc4cnc(NC5CCOCC5)nc4n(CC(=O)NC4CCNC4)c3=O)c(Cl)c2)no1` (centres unmarked) [drawing 387]: the IC50 in [2] is greater than 5000 nM.
On to `Cc1nc(-c2ccc(-c3cc4cnc(NC5CCNC(=O)C5)nc4n(Cc4c(F)cccc4C(F)(F)F)c3=O)c(Cl)c2)no1` (centres unmarked) [drawing 382], for which the values for the IC50 in assay [1] and in assay [2] were 500 to 5000 nM and greater than 5000 nM, respectively.
Regarding `Cc1nc(-c2ccc(-c3cc4cnc(NC5CCOCC5)nc4n(CC(=O)NCc4ccncc4)c3=O)c(Cl)c2)no1` [drawing 388], the figures for the IC50 in [1] and in [2] were 500 to 5000 nM and greater than 5000 nM, respectively.
Consider `CN(C)C[C@@H](NC(=O)N1Cc2c(Nc3ncnc4sccc34)n[nH]c2C1(C)C)c1ccccc1`, for which the IC50 was in the range of 50 to 500 nM in assay [1] and 500 to 5000 nM in [2].
Turning to `CCn1c(=O)c(-c2ccc(-c3cncc(C)n3)cc2Cl)cc2cnc(NCC3CCC(N)CC3)nc21` (centres unmarked) [drawing 383], the figures for the IC50 in [1] and in [2] were 50 to 500 nM and 500 to 5000 nM, respectively.
For the compound `Cc1cncc(-c2ccc(-c3cc4cnc(N[C@@H]5CCOC5)nc4n(CCCN)c3=O)c(Cl)c2)n1` [drawing 384], the IC50 in assay [1] and in assay [2] was 500 to 5000 nM in each case.
On to `CCn1c(=O)c(-c2ccc(-c3cncc(C)n3)cc2Cl)cc2cnc(NC3CCOCC3)nc21` [drawing 391], for which the IC50 in assay [1] was in the range of 50 to 500 nM; in assay [2], 500 to 5000 nM.
Take `Cc1nc(-c2ccc(-c3cc4cnc(NC5CCOCC5)nc4n(Cc4cccc(CN)c4)c3=O)c(Cl)c2)no1` [drawing 379]: the IC50 in [1] is 50 to 500 nM; in assay [2], 500 to 5000 nM.
The corresponding values for `CCn1c(=O)c(-c2ccc(-c3cccnc3F)cc2Cl)cc2cnc(NC3CCOCC3)nc21` [drawing 392] are 500 to 5000 nM and 500 to 5000 nM.
Take `CCn1c(=O)c(-c2ccc(-c3cccc(C)n3)cc2Cl)cc2cnc(N[C@H]3CC[C@H](CN(C)C)CC3)nc21`: the IC50 in [1] and in assay [2] was 500 to 5000 nM throughout.
Usually GI50 stands for the concentration that inhibits growth by half. For the compound `CCn1c(=O)c(-c2ccc(-c3nccnc3C)cc2Cl)cc2cnc(NC3CCOC(C)(C)C3)nc21` (centres unmarked) [Compound 30], the “Maximum Inhibition” value is −13% in assay [3]; −17% in [4]; −14% in [5]; −50% in [6]; −20% in assay [7]; −50% in [9]. Also, the GI50 in [3] (Homo sapiens) turned out to be 3500 nM; in [4] (Homo sapiens), 6000 nM; in assay [5] (Homo sapiens), 3800 nM; in assay [6] (Homo sapiens) it was 330 nM; in assay [7] (Homo sapiens), 3100 nM; in assay [8], 3800 nM. In addition, the GI50 in assay [9] (Homo sapiens) amounted to 2600 nM.
Regarding `Cc1nc(-c2ccc(-c3cc4cnc(NC5CC5)nc4n(Cc4cccc(CN(C)C)c4)c3=O)c(Cl)c2)no1`, the IC50 is 50 to 500 nM in [10] (setting [12]), 500 to 5000 nM in [10] (setting [13]) and no less than 5000 nM in assay [11].
With `Cc1nc(-c2ccc(-c3cc4cnc(NC5CCOCC5)nc4n(CC4CCCNC4)c3=O)c(Cl)c2)no1` (centres unmarked), the IC50 in assay [10] (setting [12]) was 50 to 500 nM; in assay [10] (setting [13]), no less than 5000 nM; in [11], no less than 5000 nM.
